Measured values from patent US10851105B2, “Bicyclic heterocycles as FGFR4 inhibitors” (Incyte Corporation, priority 2014, dated 2020).
Like-named read-outs stand apart in the source and are kept apart here.

Key:
FGFR1 = FGFR1 (Homo sapiens (Human), UniProt P11362); experiment: FGFR Enzymatic Assay (FRET peptide phosphorylation), FGFR1; details: for FGFR1/FGFR4: IC50 ratio
Description: (§1) The inhibitor potency of the exemplified compounds was measured in an enzyme assay that measures peptide phosphorylation using FRET measurements to detect product formation. Inhibitors were serially diluted in DMSO and a volume of 0.5 μL was transferred to the wells of a 384-well plate. For FGFR3, a 10 μL volume of FGFR3 enzyme (Millipore) diluted in assay buffer (50 mM HEPES, 10 mM MgCl2, 1 mM EGTA, 0.01% Tween-20, 5 mM DTT, pH 7.5) was added to the plate and pre-incubated for a time between 5-10 minutes and up to 4 hours. Appropriate controls (enzyme blank and enzyme with no inhibitor) were included on the plate. […] The plate was incubated at 25° C. for 1 hr. […] The plate was allowed to equilibrate for ˜1 hr before scanning the wells on a PheraStar plate reader (BMG Labtech).
(§2) The enzymes were purchased from Millipore or Invitrogen.
(§3) GraphPad prism3 was used to analyze the data. The IC50 values were derived by fitting the data to the equation for a sigmoidal dose-response with a variable slope. Y=Bottom+(Top-Bottom)/(1+10^((Log IC50−X)*HillSlope)) where X is the logarithm of concentration and Y is the response.

FGFR3 = FGFR3 (Homo sapiens (Human), UniProt P22607); experiment: FGFR Enzymatic Assay (FRET peptide phosphorylation), FGFR3; details: for FGFR3/FGFR4: IC50 ratio
FGFR3, sequence (P22607 23-806): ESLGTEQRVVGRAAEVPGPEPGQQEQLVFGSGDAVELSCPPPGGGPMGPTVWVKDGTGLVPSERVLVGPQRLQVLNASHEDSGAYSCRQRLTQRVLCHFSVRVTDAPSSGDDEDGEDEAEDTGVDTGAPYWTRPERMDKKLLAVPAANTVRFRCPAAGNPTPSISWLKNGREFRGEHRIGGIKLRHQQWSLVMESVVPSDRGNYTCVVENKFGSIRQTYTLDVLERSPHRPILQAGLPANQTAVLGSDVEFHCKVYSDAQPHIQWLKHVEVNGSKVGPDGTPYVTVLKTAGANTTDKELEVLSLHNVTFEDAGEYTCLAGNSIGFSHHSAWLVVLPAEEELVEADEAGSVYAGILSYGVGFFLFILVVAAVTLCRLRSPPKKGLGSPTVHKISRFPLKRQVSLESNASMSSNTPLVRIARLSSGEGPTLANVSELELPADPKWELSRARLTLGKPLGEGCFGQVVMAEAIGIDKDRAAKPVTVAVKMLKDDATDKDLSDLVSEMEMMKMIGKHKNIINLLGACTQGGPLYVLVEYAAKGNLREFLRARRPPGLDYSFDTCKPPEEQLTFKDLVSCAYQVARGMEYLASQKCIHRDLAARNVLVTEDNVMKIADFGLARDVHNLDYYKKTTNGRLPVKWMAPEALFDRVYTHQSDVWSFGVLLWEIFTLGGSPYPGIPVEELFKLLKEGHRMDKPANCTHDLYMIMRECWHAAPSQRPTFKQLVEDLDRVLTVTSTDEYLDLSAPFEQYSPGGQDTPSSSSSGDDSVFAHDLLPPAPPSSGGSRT
Description: Inhibitors were serially diluted in DMSO and a volume of 0.5 μL was transferred to the wells of a 384-well plate. For FGFR3, a 10 μL volume of FGFR3 enzyme (Millipore) diluted in assay buffer (50 mM HEPES, 10 mM MgCl2, 1 mM EGTA, 0.01% Tween-20, 5 mM DTT, pH 7.5) was added to the plate and pre-incubated for a time between 5-10 minutes and up to 4 hours. Appropriate controls (enzyme blank and enzyme with no inhibitor) were included on the plate. […] The plate was incubated at 25° C. for 1 hr. […] The plate was allowed to equilibrate for ˜1 hr before scanning the wells on a PheraStar plate reader (BMG Labtech).
as §3

FGFR4 = FGFR4 (Homo sapiens (Human), UniProt P22455); experiment: FGFR Enzymatic Assay (FRET peptide phosphorylation), FGFR4
FGFR4, sequence (P22455 22-802): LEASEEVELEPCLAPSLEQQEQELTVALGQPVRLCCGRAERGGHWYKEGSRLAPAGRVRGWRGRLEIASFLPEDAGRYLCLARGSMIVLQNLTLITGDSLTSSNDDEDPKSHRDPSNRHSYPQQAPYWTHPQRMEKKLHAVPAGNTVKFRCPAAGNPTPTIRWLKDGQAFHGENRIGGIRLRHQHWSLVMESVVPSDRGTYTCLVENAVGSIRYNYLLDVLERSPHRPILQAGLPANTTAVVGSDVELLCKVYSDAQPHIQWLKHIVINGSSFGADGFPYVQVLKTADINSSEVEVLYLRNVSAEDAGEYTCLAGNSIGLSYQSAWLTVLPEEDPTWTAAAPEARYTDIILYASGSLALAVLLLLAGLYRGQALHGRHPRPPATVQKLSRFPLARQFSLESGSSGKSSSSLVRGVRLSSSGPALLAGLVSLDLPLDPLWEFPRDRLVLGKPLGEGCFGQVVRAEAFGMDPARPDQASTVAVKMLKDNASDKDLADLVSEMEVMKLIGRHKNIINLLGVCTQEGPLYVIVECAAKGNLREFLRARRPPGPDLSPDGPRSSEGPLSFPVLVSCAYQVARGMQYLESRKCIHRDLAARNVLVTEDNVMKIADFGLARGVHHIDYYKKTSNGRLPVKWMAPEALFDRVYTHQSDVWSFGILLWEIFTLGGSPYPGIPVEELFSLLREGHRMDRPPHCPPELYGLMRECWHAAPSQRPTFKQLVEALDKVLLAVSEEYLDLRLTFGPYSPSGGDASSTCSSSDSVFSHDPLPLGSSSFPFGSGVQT
Description: as §1, §2, §3

FGFR2 = FGFR2 (Homo sapiens (Human), UniProt P21802); experiment: FGFR Enzymatic Assay (FRET peptide phosphorylation), FGFR2; details: for FGFR2/FGFR4: IC50 ratio
FGFR2, sequence (P21802 22-821): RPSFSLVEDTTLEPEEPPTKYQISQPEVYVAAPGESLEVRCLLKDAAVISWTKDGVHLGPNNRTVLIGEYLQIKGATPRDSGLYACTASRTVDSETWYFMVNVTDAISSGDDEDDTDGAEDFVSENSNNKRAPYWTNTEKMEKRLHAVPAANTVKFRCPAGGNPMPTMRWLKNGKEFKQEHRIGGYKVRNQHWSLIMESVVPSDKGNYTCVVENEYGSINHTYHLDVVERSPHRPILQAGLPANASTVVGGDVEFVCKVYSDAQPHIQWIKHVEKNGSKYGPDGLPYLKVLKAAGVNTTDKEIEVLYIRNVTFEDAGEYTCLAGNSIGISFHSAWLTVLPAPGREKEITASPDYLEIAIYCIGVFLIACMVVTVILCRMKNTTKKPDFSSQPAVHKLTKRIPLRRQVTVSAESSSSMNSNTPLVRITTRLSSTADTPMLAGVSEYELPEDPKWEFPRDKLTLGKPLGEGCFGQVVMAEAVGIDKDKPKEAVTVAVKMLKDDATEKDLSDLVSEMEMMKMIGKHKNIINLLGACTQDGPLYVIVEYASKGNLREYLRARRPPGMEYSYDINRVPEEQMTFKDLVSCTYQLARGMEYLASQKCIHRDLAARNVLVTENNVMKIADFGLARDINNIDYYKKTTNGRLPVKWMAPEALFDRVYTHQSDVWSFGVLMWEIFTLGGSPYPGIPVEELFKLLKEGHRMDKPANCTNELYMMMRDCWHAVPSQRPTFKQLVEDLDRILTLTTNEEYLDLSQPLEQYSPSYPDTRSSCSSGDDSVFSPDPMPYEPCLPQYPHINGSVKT
Description: as §1, §2, §3

[1] = FGFR1 IC50 (nM), pre-incubated for 4 hours
[2] = pre-incubated for 5 to 10 minutes
[3] = read-out: FGFR1 IC50, pre-incubated for 5 to 10 minutes
[4] = read-out: FGFR3 IC50, pre-incubated for 5 to 10 minutes
[5] = read-out: FGFR3 IC50, pre-incubated for 4 hours
[6] = read-out: FGFR4 IC50, pre-incubated for 5 to 10 minutes
[7] = read-out: FGFR4 IC50, pre-incubated for 4 hours
[8] = read-out: FGFR2 IC50, pre-incubated for 5 to 10 minutes
[9] = read-out: FGFR1 IC50, pre-incubated for 4 hours
[10] = read-out: FGFR2 IC50, pre-incubated for 4 hours
[11] = FGFR4 IC50 (nM), pre-incubated for 5 to 10 minutes
[12] = FGFR4 IC50 (nM), pre-incubated for 4 hours
[13] = FGFR1 IC50 (nM), pre-incubated for 5 to 10 minutes

FGFR1, sequence (P11362 22-822): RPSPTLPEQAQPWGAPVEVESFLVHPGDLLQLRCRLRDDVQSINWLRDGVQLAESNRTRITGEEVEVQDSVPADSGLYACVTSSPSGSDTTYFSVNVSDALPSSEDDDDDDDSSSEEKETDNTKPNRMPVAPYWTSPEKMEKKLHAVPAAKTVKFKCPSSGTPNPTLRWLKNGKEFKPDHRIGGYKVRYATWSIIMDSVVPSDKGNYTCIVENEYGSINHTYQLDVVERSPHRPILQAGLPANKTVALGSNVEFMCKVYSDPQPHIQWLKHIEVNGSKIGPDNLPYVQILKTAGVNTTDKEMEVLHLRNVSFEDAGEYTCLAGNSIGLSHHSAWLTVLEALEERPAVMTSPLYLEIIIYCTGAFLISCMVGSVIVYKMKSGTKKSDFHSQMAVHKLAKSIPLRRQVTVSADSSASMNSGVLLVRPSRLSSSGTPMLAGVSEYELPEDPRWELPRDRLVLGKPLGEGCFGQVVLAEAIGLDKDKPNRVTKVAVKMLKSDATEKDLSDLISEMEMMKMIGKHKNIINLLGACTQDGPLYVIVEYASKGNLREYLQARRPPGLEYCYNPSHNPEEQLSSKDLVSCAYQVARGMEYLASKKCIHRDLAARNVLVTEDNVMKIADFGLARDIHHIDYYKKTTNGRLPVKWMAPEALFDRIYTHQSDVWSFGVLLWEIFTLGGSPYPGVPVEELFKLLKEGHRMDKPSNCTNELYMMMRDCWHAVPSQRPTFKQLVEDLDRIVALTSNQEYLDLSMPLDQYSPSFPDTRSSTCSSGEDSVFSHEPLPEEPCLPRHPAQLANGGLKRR

| Structure (SMILES) | IC50 (FGFR1; [1]) | FGFR1/FGFR4 (FGFR1; [2]) | FGFR1/FGFR4 (FGFR1; pre-incubated for 4 hours) | IC50 (FGFR1; [3]) | FGFR3/FGFR4 (FGFR3; [2]) | FGFR3/FGFR4 (FGFR3; pre-incubated for 4 hours) | IC50 (FGFR3; [4]) | IC50 (FGFR3; [5]) | IC50 (FGFR4; [6]) | IC50 (FGFR4; [7]) | IC50 (FGFR2) | FGFR2/FGFR4 (FGFR2; [2]) | FGFR2/FGFR4 (FGFR2; pre-incubated for 4 hours) | IC50 (FGFR2; [8]) | IC50 (FGFR1; [9]) | IC50 (FGFR2; [10]) | IC50 (FGFR4; [11]) | IC50 (FGFR4; [12]) | IC50 (FGFR3) | IC50 (FGFR1; [13]) |
| --- | --- | --- | --- | --- | --- | --- | --- | --- | --- | --- | --- | --- | --- | --- | --- | --- | --- | --- | --- | --- |
| C=CC(=O)Nc1ccc(N2CCN(C)CC2)cc1Nc1cc2c(cn1)CN(c1c(F)c(OC)cc(OC)c1F)C(=O)C21CC1 [Example 11, N-(2-(2′-(2,6-difluoro-3,5-dimethoxyphenyl)-3′-oxo-2′,3′-dihydro-1′H-spiro [cyclopropane-1,4′-[2,7]naphthyridine]-6′-ylamino)-4-(4-methylpiperazin-1-yl)phenyl)acrylamide] | 30 to 200 nM | >10 | >25 | > 200 nM | >10 | >100 | > 200 nM | > 200 nM | < 10 nM | < 10 nM | 30 to 200 nM | >10 | >25 | > 200 nM |  |  |  |  |  |  |
| C=CC(=O)Nc1ccccc1Nc1cc2c(cn1)CN(c1c(F)c(OC)cc(OC)c1F)C(=O)C21CCOCC1 [Example 8, N-(2-(2-(2,6-difluoro-3,5-dimethoxyphenyl)-3-oxo-2,2′,3,3′,5′,6′-hexahydro-1H-spiro[[2,7]naphthyridine-4,4′-pyran]-6-ylamino)phenyl)acrylamide] |  | >10 | >100 | > 200 nM | >10 | >100 | > 200 nM | > 200 nM | > 200 nM | < 10 nM |  | >10 | >100 | > 200 nM | > 200 nM | > 200 nM |  |  |  |  |
| C=CC(=O)N[C@H]1CCC[C@H]1Oc1ncc2c(n1)C1(CC1)C(=O)N(c1c(F)c(OC)cc(OC)c1F)C2 [Example 12, N-((1 S,2R)-2-(6′-(2,6-difluoro-3,5-dimethoxyphenyl)-7′-oxo-6′,7′-dihydro-5′H-spiro[cyclopropane-1,8′-pyrido[4,3-d]pyrimidine]-2′-yloxy)cyclopentyl)acrylamide] |  | >10 | >100 | > 200 nM | >10 | >100 | > 200 nM | > 200 nM |  |  |  | >10 | >100 | > 200 nM | > 200 nM | > 200 nM | 30 to 200 nM | 10 to 30 nM |  |  |
| C=CC(=O)Nc1ccc(N2CCOCC2)cc1Nc1cc2c(cn1)CN(c1c(F)c(OC)cc(OC)c1F)C(=O)C21CC1 [Example 10, N-(2-{[2′-(2,6-difluoro-3,5-dimethoxyphenyl)-3′-oxo-2′,3′-dihydro-1′H-spiro [cyclopropane-1,4′-[2,7]naphthyridin]-6′-yl]amino}-4-morpholin-4-ylphenyl)acrylamide] | 30 to 200 nM | >10 | >100 | > 200 nM | >10 | >100 | 30 to 200 nM |  | < 10 nM | < 10 nM |  | >10 | >100 | > 200 nM |  | > 200 nM |  |  | 30 to 200 nM |  |
| C=CC(=O)Nc1ccccc1Nc1cc2c(cn1)CN(c1c(F)c(OC)cc(OC)c1F)C(=O)C21CCOC1 (centres unmarked) [Example 9, N-(2-(2′-(2,6-difluoro-3,5-dimethoxyphenyl)-3′-oxo-2′,3′,4,5-tetrahydro-1′H,2H-spiro[furan-3,4′-[2,7]naphthyridine]-6′-ylamino)phenyl)acrylamide] |  | >10 | >100 | > 200 nM | >10 | >100 | > 200 nM | > 200 nM |  | < 10 nM |  | >10 | >100 | > 200 nM | > 200 nM | > 200 nM | 10 to 30 nM |  |  |  |
| C=CC(=O)Nc1ccccc1Nc1cc2c(cn1)CN(c1c(F)c(OC)cc(OC)c1F)C(=O)C21CCCC1 [Example 7, N-(2-(2′-(2,6-difluoro-3,5-dimethoxyphenyl)-3′-oxo-2′,3′-dihydro-1′H-spiro [cyclopentane-1,4′-[2,7]naphthyridine]-6′-ylamino)phenyl)acrylamide] | 30 to 200 nM | >10 | >100 |  | >10 | >100 | > 200 nM | > 200 nM | < 10 nM | < 10 nM | 30 to 200 nM | >10 | >100 | > 200 nM |  |  |  |  |  | 30 to 200 nM |
| C=CC(=O)NC1CCCCC1Nc1cc2c(cn1)CN(c1c(F)c(OC)cc(OC)c1F)C(=O)C21CC1 (racemic) [Example 3, N-(2-(2′-(2,6-difluoro-3,5-dimethoxyphenyl)-3′-oxo-2′,3′-dihydro-1′H-spiro [cyclopropane-1,4′-[2,7]naphthyridine]-6′-ylamino)cyclohexyl)acrylamide] | > 200 nM | >5 | >25 |  | >10 | >100 | > 200 nM |  |  |  | > 200 nM | >5 | >25 | > 200 nM |  |  | 30 to 200 nM | < 10 nM | > 200 nM | > 200 nM |
| C=CC(=O)Nc1ccccc1Nc1cc2c(cn1)CN(c1c(F)c(OC)cc(OC)c1F)C(=O)C2(C)C [Example 6, N-(2-(7-(2,6-difluoro-3,5-dimethoxyphenyl)-5,5-dimethyl-6-oxo-5,6,7,8-tetrahydro-2,7-naphthyridin-3-ylamino)phenyl)acrylamide] |  | >10 | >100 | > 200 nM | >10 | >100 | > 200 nM | > 200 nM |  | < 10 nM |  | >10 | >100 | > 200 nM | > 200 nM | > 200 nM | 10 to 30 nM |  |  |  |
| C=CC(=O)Nc1ccccc1Nc1cc2c(cn1)CN(c1c(F)c(OC)cc(OC)c1F)C(=O)C21CC1 [Example 1, N-(2-(2′-(2,6-difluoro-3,5-dimethoxyphenyl)-3′-oxo-2′,3′-dihydro-1H-spiro[cyclopropane-1,4′-[2,7]naphthyridine]-6′-ylamino)phenyl)acrylamide] | 30 to 200 nM | >10 | >100 |  | >10 | >100 | 30 to 200 nM |  | < 10 nM | < 10 nM | 30 to 200 nM | >10 | >100 | 30 to 200 nM |  |  |  |  | 30 to 200 nM | 30 to 200 nM |
| C=CC(=O)Nc1cccc(C)c1Nc1cc2c(cn1)CN(c1c(F)c(OC)cc(OC)c1F)C(=O)C21CC1 [Example 5, N-(2-(2′-(2,6-difluoro-3,5-dimethoxyphenyl)-3′-oxo-2′,3′-dihydro-1′H-spiro [cyclopropane-1,4′-[2,7]naphthyridine]-6′-ylamino)-3-methylphenyl)acrylamide] |  | >10 | >100 | > 200 nM | >10 | >100 | > 200 nM | > 200 nM | < 10 nM | < 10 nM |  | >10 | >100 | > 200 nM | > 200 nM | > 200 nM |  |  |  |  |
